A value given as a limit tells only on which side of the number the result lay.

Series [1] is described as follows: Log D shake flask method (octanol / PBS pH 7.4, HPLC). Type of series: physicochemical. As to conditions: octanol/phosphate-buffered saline (PBS); octanol / PBS pH 7.4, shake flask. Here is the method:
In order to classify the inventive compounds according to their lipophilicity, Log D values (distribution coefficient) were determined by means of the well-established shake flask method, measuring the partition of a compound between an octanol and phosphate-buffered saline (PBS, pH 7.4) by HPLC.

In series [2] the target is T1, recombinant human transglutaminase 2 (Homo sapiens, UniProt P21980).
T1 construct: purchased Zedira T022
T1 sequence (P21980 1-687): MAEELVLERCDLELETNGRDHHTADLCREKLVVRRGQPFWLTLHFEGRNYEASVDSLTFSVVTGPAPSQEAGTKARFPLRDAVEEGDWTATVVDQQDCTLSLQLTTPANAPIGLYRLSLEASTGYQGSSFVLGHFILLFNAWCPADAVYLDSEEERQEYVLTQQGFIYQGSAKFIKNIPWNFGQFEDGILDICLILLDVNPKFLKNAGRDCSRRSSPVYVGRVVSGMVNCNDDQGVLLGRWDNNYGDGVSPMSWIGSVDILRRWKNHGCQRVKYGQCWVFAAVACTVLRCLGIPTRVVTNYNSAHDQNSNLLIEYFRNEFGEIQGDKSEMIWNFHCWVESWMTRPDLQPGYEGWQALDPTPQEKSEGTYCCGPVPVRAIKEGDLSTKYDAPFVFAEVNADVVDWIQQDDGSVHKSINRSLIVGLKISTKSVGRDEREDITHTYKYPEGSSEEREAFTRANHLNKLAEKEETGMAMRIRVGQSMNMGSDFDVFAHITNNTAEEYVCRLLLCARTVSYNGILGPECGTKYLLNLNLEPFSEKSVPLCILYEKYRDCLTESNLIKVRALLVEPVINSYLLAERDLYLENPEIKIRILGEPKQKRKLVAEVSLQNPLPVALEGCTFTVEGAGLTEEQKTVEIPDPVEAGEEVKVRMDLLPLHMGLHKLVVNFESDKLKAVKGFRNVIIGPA
The series is described as follows: Transglutaminase assay (dansylcadaverine incorporation into dimethylcasein, DCC-assay). Format: biochemical. The conditions noted are these: recombinant human TG2 10 nM, dansylcadaverine/dimethylcasein, 37° C. In a few lines: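 IC50 derived from fluorescence slope between 20 and 30 min (λex 330 nm, λem 500 nm, 37 °C), expressed relative to a 2% DMSO control. Reaction: 10 nM recombinant human TG2, 4 μM dimethylcasein, 16.7 μM dansylcadaverine, 10 mM CaCl2 and glutathione, pH 8.0.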

The nature of series [3]: Caco-2 permeability assay (CacoReady kit). Format: in vitro ADME. As to conditions: human. In a few lines:
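Apparent permeability coefficients (Papp) were measured across Caco-2 cell barriers using a ready-to-use kit run per the supplier's protocol. Values serve as a predictor of oral/intestinal bioavailability.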
On the technique in general: Caco-2 monolayers are a common model of the intestinal barrier.

Regarding `Cc1c(C(=O)N[C@@H](CC/C=C/C(=O)N(C)C)C(=O)Nc2cccn(CC(=O)NC3C4CC5CC(C4)CC3C5)c2=O)oc2ccccc12` (stereo partly drawn) [III-75, (S,E)-N^7-(1-(2-(2-adamantylamino)-2-oxoethyl)-2-oxo-1,2-dihydropyridin-3-yl)-N^1,N^1-dimethyl-6-(3-methylbenzofuran-2-carboxamido)hept-2-enediamide], the logD (usually the decadic logarithm of the distribution of all forms, ionised or not, between an organic phase and buffer at a given pH) in series [1] is 3 to 5. The IC50 – broadly, the concentration that inhibits the measured activity by half – in series [2] lay in the range of 25 to 250 nM. Also, in series [3], the Papp (commonly a coefficient for how fast a substance crosses the barrier) was in the range of 1 to 10 ×10⁻⁶ cm/s.
On the same counts, the results for `CN(C)C(=O)/C=C/CC[C@H](NC(=O)c1cncn1C)C(=O)Nc1cccn(CC(=O)NC2C3CC4CC(C3)CC2C4)c1=O` (stereo partly drawn) [III-76, (S,E)-N^7-(1-(2-(2-adamantylamino)-2-oxoethyl)-2-oxo-1,2-dihydropyridin-3-yl)-N^1,N^1-dimethyl-6-(1-methyl-1H-imidazole-5-carboxamido)hept-2-enediamide] are 1 to 3, 25 to 250 nM and less than 1 ×10⁻⁶ cm/s.
On the same counts, the results for `Cc1c(C(=O)N[C@@H](CC/C=C/C(=O)N(C)C)C(=O)Nc2cccn(CC(=O)NC34CC5CC(C)(CC(C)(C5)C3)C4)c2=O)oc2ccccc12` [III-77, (S,E)-N^7-(1-(2-(3,5-dimethyladamantan-1-amino)-2-oxoethyl)-2-oxo-1,2-dihydropyridin-3-yl)-N^1,N^1-dimethyl-6-(3-methylbenzofuran-2-carboxamido)hept-2-enediamide] are 3 to 5, 25 to 250 nM and 1 to 10 ×10⁻⁶ cm/s.
On the same counts, the results for `COC(=O)/C=C/CC[C@H](NC(=O)c1cncn1C)C(=O)Nc1cccn(CC23CC4CC(CC(C4)C2)C3)c1=O` [III-78, (S,E)-methyl 7-(1-(1-adamantylmethyl)-2-oxo-1,2-dihydropyridin-3-ylamino)-6-(1-methyl-1H-imidazole-5-carboxamido)-7-oxohept-2-enoate] are 3 to 5, 250 to 1500 nM and less than 1 ×10⁻⁶ cm/s.
For the compound `COC(=O)/C=C/CC[C@H](NC(=O)c1oc2ccccc2c1C)C(=O)Nc1cccn(CC23CC4CC(CC(C4)C2)C3)c1=O` [III-79, (S,E)-methyl 7-(1-(1-adamantylmethyl)-2-oxo-1,2-dihydropyridin-3-ylamino)-6-(3-methylbenzofuran-2-carboxamido)-7-oxohept-2-enoate], the logD in series [1] lay in the range of 3 to 5. Also, in series [2], the IC50 lay in the range of 250 to 1500 nM. The compound further registered a Papp in series [3] of 1 to 10 ×10⁻⁶ cm/s.
On the same counts, the results for `COC(=O)/C=C/CC[C@H](NC(=O)c1oc2ccccc2c1C)C(=O)Nc1cccn(CC23CC4CC(CC(O)(C4)C2)C3)c1=O` [III-80, (6S,E)-methyl 7-(1-((3-hydroxy-1-adamantyl)methyl)-2-oxo-1,2-dihydropyridin-3-ylamino)-6-(3-methylbenzofuran-2-carboxamido)-7-oxohept-2-enoate] are 1 to 3, 250 to 1500 nM and less than 1 ×10⁻⁶ cm/s.
On the same counts, the results for `COC(=O)/C=C/CC[C@H](NC(=O)c1oc2ccccc2c1C)C(=O)Nc1cccn(CC23CC4CC(CC(Br)(C4)C2)C3)c1=O` [III-81, (6S, E)-methyl 7-(1-((3-bromo-1-adamantyl)methyl)-2-oxo-1,2-dihydropyridin-3-ylamino)-6-(3-methylbenzofuran-2-carboxamido)-7-oxohept-2-enoate] are 3 to 5, 250 to 1500 nM and 1 to 10 ×10⁻⁶ cm/s.
For `COC(=O)/C=C/CC[C@H](NC(=O)c1oc2ccccc2c1C)C(=O)Nc1cccn(CC2C3CC4CC(C3)CC2C4)c1=O` (stereo partly drawn) [III-82, (S,E)-methyl 7-(1-(2-adamantylmethyl)-2-oxo-1,2-dihydropyridin-3-ylamino)-6-(3-methylbenzofuran-2-carboxamido)-7-oxohept-2-enoate], the logD in series [1] lay in the range of 3 to 5. For the same compound, the IC50 in series [2] fell in the range of 250 to 1500 nM. Besides, the Papp in series [3] fell in the range of 1 to 10 ×10⁻⁶ cm/s.
On the same counts, the results for `COC(=O)/C=C/CC[C@H](NC(=O)c1cccnc1)C(=O)Nc1cccn(CC(=O)NC2C3CC4CC(C3)CC2C4)c1=O` (stereo partly drawn) [III-83, (S,E)-methyl 7-(1-(2-(2-adamantylamino)-2-oxoethyl)-2-oxo-1,2-dihydropyridin-3-ylamino)-6-(nicotinamido)-7-oxohept-2-enoate] are 3 to 5, less than 25 nM and less than 1 ×10⁻⁶ cm/s.
On the same counts, the results for `COC(=O)/C=C/CC[C@H](NC(=O)c1ccncc1)C(=O)Nc1cccn(CC(=O)NC2C3CC4CC(C3)CC2C4)c1=O` (stereo partly drawn) [III-84, (S,E)-methyl 6-(isonicotinamido)-7-(1-(2-(2-adamantylamino)-2-oxoethyl)-2-oxo-1,2-dihydropyridin-3-ylamino)-7-oxohept-2-enoate] are 3 to 5, less than 25 nM and less than 1 ×10⁻⁶ cm/s.
On the same counts, the results for `COC(=O)/C=C/CC[C@H](NC(=O)c1ccnnc1)C(=O)Nc1cccn(CC(=O)NC2C3CC4CC(C3)CC2C4)c1=O` (stereo partly drawn) [III-85, (S,E)-methyl 7-(1-(2-(2-adamantylamino)-2-oxoethyl)-2-oxo-1,2-dihydropyridin-3-ylamino)-7-oxo-6-(pyridazine-4-carboxamido)hept-2-enoate] are 1 to 3, less than 25 nM and less than 1 ×10⁻⁶ cm/s.
For the compound `COC(=O)/C=C/CC[C@H](NC(=O)c1cccnn1)C(=O)Nc1cccn(CC(=O)NC2C3CC4CC(C3)CC2C4)c1=O` (stereo partly drawn) [III-86, (S,E)-methyl 7-(1-(2-(2-adamantylamino)-2-oxoethyl)-2-oxo-1,2-dihydropyridin-3-ylamino)-7-oxo-6-(pyridazine-3-carboxamido)hept-2-enoate], the log distribution coefficient (logD) in series [1] is 1 to 3. The IC50 in series [2] was less than 25 nM. Further, the Papp in series [3] is less than 1 ×10⁻⁶ cm/s.
For the compound `COC(=O)/C=C/CC[C@H](NC(=O)c1cncn1C)C(=O)Nc1cccn(CC(=O)NC23CC4CC(C)(CC(C)(C4)C2)C3)c1=O` [III-88, (S,E)-methyl 7-(1-(2-(3,5-dimethyladamantane)-2-oxoethyl)-2-oxo-1,2-dihydropyridin-3-ylamino)-6-(1-methyl-1H-imidazole-5-carboxamido)-7-oxohept-2-enoate], the logD in series [1] fell in the range of 1 to 3. In addition, the IC50 in series [2] is less than 25 nM. For the same compound, the apparent permeability coefficient (Papp) in series [3] was less than 1 ×10⁻⁶ cm/s.
On the same counts, the results for `CCOC(=O)/C=C/CC[C@H](NC(=O)c1oc2ccccc2c1C)C(=O)Nc1cccn(CC(=O)NC2C3CC4CC(C3)CC2C4)c1=O` (stereo partly drawn) [III-89, (S,E)-ethyl 7-(1-(2-(2-adamantylamino)-2-oxoethyl)-2-oxo-1,2-dihydropyridin-3-ylamino)-6-(3-methylbenzofuran-2-carboxamido)-7-oxohept-2-enoate] are 3 to 5, less than 25 nM and 1 to 10 ×10⁻⁶ cm/s.
On the same counts, the results for `Cc1c(C(=O)N[C@@H](CC/C=C/S(C)(=O)=O)C(=O)Nc2cccn(CC(=O)NC3C4CC5CC(C4)CC3C5)c2=O)oc2ccccc12` (stereo partly drawn) [III-90, (S,E)-N-(1-(1-(2-(2-adamantylamino)-2-oxoethyl)-2-oxo-1,2-dihydropyridin-3-ylamino)-6-(methylsulfonyl)-1-oxohex-5-en-2-yl)-3-methylbenzofuran-2-carboxamide] are 1 to 3, less than 25 nM and 1 to 10 ×10⁻⁶ cm/s.
On the same counts, the results for `COC(=O)/C=C/CC[C@H](NC(=O)c1cncn1C)C(=O)Nc1cccn(CC(=O)NC23CC4(C)CC(C)(CC(C)(C4)C2)C3)c1=O` [III-91, (S,E)-methyl 7-(1-(2-(3,5,7-trimethyl-1-adamantylamino)-2-oxoethyl)-2-oxo-1,2-dihydropyridin-3-ylamino)-6-(1-methyl-1H-imidazole-5-carboxamido)-7-oxohept-2-enoate] are 3 to 5, less than 25 nM and 1 to 10 ×10⁻⁶ cm/s.
With `COC(=O)/C=C/CC[C@H](NC(=O)c1oc2ccccc2c1C)C(=O)Nc1cccn(CC(=O)NC23CC4(C)CC(C)(CC(C)(C4)C2)C3)c1=O` [III-92, (S,E)-methyl 7-(1-(2-(3,5,7-trimethyl-1-adamantylamino)-2-oxoethyl)-2-oxo-1,2-dihydropyridin-3-ylamino)-6-(3-methylbenzofuran-2-carboxamido)-7-oxohept-2-enoate], in series [1], the logD lay within 3 to 5. Moreover, the IC50 in series [2] is less than 25 nM. This compound also registered a Papp in series [3] of 1 to 10 ×10⁻⁶ cm/s.
In turn, `COC(=O)/C=C/CC[C@H](NC(=O)c1cnnn1C)C(=O)Nc1cccn(CC(=O)NC23CC4(C)CC(C)(CC(C)(C4)C2)C3)c1=O` [III-93, (S,E)-methyl 7-(1-(2-(3,5,7-trimethyl-1-adamantylamino)-2-oxoethyl)-2-oxo-1,2-dihydropyridin-3-ylamino)-6-(1-methyl-1H-1,2,3-triazole-5-carboxamido)-7-oxohept-2-enoate] had a logD in series [1] of 1 to 3. Further, the IC50 in series [2] was less than 25 nM. For the same compound, the apparent permeability (Papp) in series [3] lay within 1 to 10 ×10⁻⁶ cm/s.

The values above are taken from patent US20240317708A1, “INHIBITORS OF TRANSGLUTAMINASES” (ZEDIRA GMBH, priority 2021, published 2024).
